How the values were obtained:
CASOB (Sicklepod) = test: Preemergence herbicidal evaluation; assay type: in vivo, Cassia obtusifolia; conditions: rated 4-5 weeks after treatment; for CASOB rating: preemergence, 0-9 scale
Summary of the method: (§1)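 Each species is sown separately in potting soil over roughly an inch of soil before any emergence. The soil surface then receives an aqueous acetone spray delivering about 0.0156 to 0.500 kg/ha of compound. After four to five weeks, injury is scored from 0 to 9 relative to a control.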

AMBEL (Ragweed, Common) [1] = test: Preemergence herbicidal evaluation; assay type: in vivo, Ambrosia artemisifolia; conditions: rated 4-5 weeks after treatment; for AMBEL rating: preemergence, 0-9 scale
Summary of the method: as §1

SETVI (Foxtail, Green) = test: Preemergence herbicidal evaluation; assay type: in vivo, Setaria viridis; conditions: rated 4-5 weeks after treatment; for SETVI rating: preemergence, 0-9 scale
Summary of the method: as §1

AMBEL (Ragweed, Common) [2] = test: Postemergence herbicidal evaluation; assay type: in vivo, Ambrosia artemisifolia; conditions: for AMBEL herbicidal rating: postemergence
Summary of the method: (§2)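 Young plants, roughly two weeks from seeding, receive the active ingredient as a sprayed dispersion (acetone/water 50/50, 0.5% TWEEN 20) at 40 psi. Doses span about 0.0156 to 0.500 kg/ha. A visual score from 0 to 9 compares treated with control plants four to five weeks on.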

[3] = tested on: ECHORC (Watergrass (Calif.)); test: Postemergence weed control under flooded paddy conditions; assay type: in vivo, Echinochloa oryzoides; conditions: postemergence weeds
Summary of the method: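 Injury ratings (0–9 scale covering stand, vigor, malformation, size, chlorosis and overall appearance versus control) were made three to four weeks after treatment. Test material, about 0.0313 to 0.500 kg/ha a.i. in 50/50 v/v aqueous/acetone, was added to flood water 1.5 to 3 cm deep over 3 to 5 cm weeds and 1.5 to 2.5 leaf rice.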

[4] = tested on: SAGPY (Arrowhead (Pygmaea)); test: Preemergence weed control under flooded paddy conditions; assay type: in vivo, Sagittaria pygmaea; conditions: rated 3-4 weeks after treatment
Summary of the method: (§3)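 Herbicidal effect is scored visually on a 0-9 scale against an untreated control, three to four weeks after compounds are pipetted into the flood water (1.5 to 3 cm deep) over seeds planted in silt loam at 0.5 cm depth. Rates: about 0.0313 to 0.500 kg/ha.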

[5] = tested on: GLXMAW (Soybean, Williams); test: Preemergence herbicidal evaluation; assay type: in vivo, Glycine max, (L.) Merr. cv Williams; conditions: rated 4-5 weeks after treatment; for GLXMAW rating: preemergence, 0-9 scale
Summary of the method: as §1

ABUTH (Velvetleaf) = test: Preemergence herbicidal evaluation; assay type: in vivo, Abutilon theophrasti; conditions: rated 4-5 weeks after treatment; for ABUTH rating: preemergence, 0-9 scale
Summary of the method: as §1

[6] = tested on: GLXMAW (Soybean, Williams); test: Postemergence herbicidal evaluation; assay type: in vivo, Glycine max, (L.) Merr. cv Williams; conditions: for GLXMAW herbicidal rating: postemergence
Summary of the method: as §2

ZEAMX (Corn, Field) = test: Postemergence herbicidal evaluation; assay type: in vivo, Zea mays; conditions: for ZEAMX herbicidal rating: postemergence
Summary of the method: as §2

[7] = tested on: IPOHE (Morningglory, Ivyleaf); test: Postemergence herbicidal evaluation; assay type: in vivo, Ipomoea hederacea; conditions: for IPOHE herbicidal rating: postemergence
Summary of the method: as §2

CYPSE (Flatsedge) = test: Preemergence weed control under flooded paddy conditions; assay type: in vivo, Cyperus serotinus; conditions: rated 3-4 weeks after treatment
Summary of the method: as §3

GALAP (Galium) = test: Preemergence herbicidal evaluation; assay type: in vivo, Galium aparine; conditions: rated 4-5 weeks after treatment; for GALAP rating: preemergence, 0-9 scale
Summary of the method: as §1

ECHCG (Barnyardgrass) = test: Preemergence herbicidal evaluation; assay type: in vivo, Echinochloa crus-galli; conditions: rated 4-5 weeks after treatment; for ECHCG rating: preemergence, 0-9 scale
Summary of the method: as §1

CN1C(=O)C(CC(=O)Nc2ccccc2)SC1=Nc1cc(-n2c(=O)cc(C(F)(F)F)n(C)c2=O)c(F)cc1Cl (stereo not drawn) [Compound 91, 2-{{2-Chloro-5-[3,6-dihydro-3-methyl-2,6-dioxo-4-(trifluoromethyl)-1(2H)-pyrimidinyl]-4-fluorophenyl}imino}-3-methyl-4-oxo-5-thiazolidineacetanilide]
CASOB rating (CASOB (Sicklepod); 0.1250 kg/ha): 0.0 | CASOB rating (CASOB (Sicklepod); 0.2500 kg/ha): 0.0 | AMBEL rating (AMBEL (Ragweed, Common) [1]; 0.1250 kg/ha): 0.0 | AMBEL rating (AMBEL (Ragweed, Common) [1]; 0.2500 kg/ha): 0.0 | SETVI rating (SETVI (Foxtail, Green); 0.1250 kg/ha): 0.0 | SETVI rating (SETVI (Foxtail, Green); 0.2500 kg/ha): 0.0 | AMBEL herbicidal rating (AMBEL (Ragweed, Common) [2]; rate 0.0158 kg/ha): 0.0 | AMBEL herbicidal rating (AMBEL (Ragweed, Common) [2]; rate 0.0315 kg/ha): 0.0 | AMBEL herbicidal rating (AMBEL (Ragweed, Common) [2]; rate 0.0630 kg/ha): 4.0 | Herbicidal rating ECHORC ([3]; Rate 0.0313 kg/ha, rated 3 to 4 weeks after treatment): 0.0 | Herbicidal rating ECHORC ([3]; Rate 0.0625 kg/ha, rated 3 to 4 weeks after treatment): 0.0 | Herbicidal rating ECHORC ([3]; Rate 0.1250 kg/ha, rated 3 to 4 weeks after treatment): 2.0 | Herbicidal rating ECHORC ([3]; Rate 0.2500 kg/ha, rated 3 to 4 weeks after treatment): 4.0 | SAGPY herbicidal effect rating ([4]; 0.0313 kg/ha): 0.0 | SAGPY herbicidal effect rating ([4]; 0.0625 kg/ha): 0.0 | SAGPY herbicidal effect rating ([4]; 0.1250 kg/ha): 0.0 | SAGPY herbicidal effect rating ([4]; 0.2500 kg/ha): 0.0 | GLXMAW rating ([5]; 0.1250 kg/ha): 0.0 | GLXMAW rating ([5]; 0.2500 kg/ha): 0.0 | ABUTH rating (ABUTH (Velvetleaf); 0.1250 kg/ha): 4.0 | ABUTH rating (ABUTH (Velvetleaf); 0.2500 kg/ha): 9.0 | GLXMAW herbicidal rating ([6]; rate 0.0158 kg/ha): 4.5 | GLXMAW herbicidal rating ([6]; rate 0.0315 kg/ha): 4.5 | GLXMAW herbicidal rating ([6]; rate 0.0630 kg/ha): 5.5 | ZEAMX herbicidal rating (ZEAMX (Corn, Field); rate 0.0158 kg/ha): 4.0 | ZEAMX herbicidal rating (ZEAMX (Corn, Field); rate 0.0315 kg/ha): 4.0 | ZEAMX herbicidal rating (ZEAMX (Corn, Field); rate 0.0630 kg/ha): 5.0 | IPOHE herbicidal rating ([7]; rate 0.0158 kg/ha): 7.0 | IPOHE herbicidal rating ([7]; rate 0.0315 kg/ha): 9.0 | IPOHE herbicidal rating ([7]; rate 0.0630 kg/ha): 9.0 | CYPSE herbicidal effect rating (CYPSE (Flatsedge); 0.0313 kg/ha): 0.0 | CYPSE herbicidal effect rating (CYPSE (Flatsedge); 0.0625 kg/ha): 0.0 | CYPSE herbicidal effect rating (CYPSE (Flatsedge); 0.1250 kg/ha): 0.0 | CYPSE herbicidal effect rating (CYPSE (Flatsedge); 0.2500 kg/ha): 0.0 | GALAP rating (GALAP (Galium); 0.1250 kg/ha): 0.0 | GALAP rating (GALAP (Galium); 0.2500 kg/ha): 0.0 | ECHCG rating (ECHCG (Barnyardgrass); 0.1250 kg/ha): 0.0 | ECHCG rating (ECHCG (Barnyardgrass); 0.2500 kg/ha): 0.0

CCOC(=O)CN1CC(=O)N(CC(=O)OCC)C1=Nc1cc(-n2c(=O)cc(C(F)(F)F)n(C)c2=O)c(F)cc1Cl [Compound 34, 2-{{2-Chloro-5-[3,6-dihydro-3-methyl-2,6-dioxo-4-(trifluoromethyl)-1(2H)-pyrimidinyl]-4-fluoro-phenyl}imino}-4-oxo-1,3-imidazolidinediacetic acid, diethyl ester]
Preemergence herbicidal rating CASOB (CASOB (Sicklepod); rate 0.0313 kg/ha): 0.0 | Preemergence herbicidal rating CASOB (CASOB (Sicklepod); rate 0.0625 kg/ha): 0.0 | Preemergence herbicidal rating CASOB (CASOB (Sicklepod); rate 0.1250 kg/ha): 0.0 | Preemergence herbicidal rating CASOB (CASOB (Sicklepod); rate 0.2500 kg/ha): 0.0 | Preemergence herbicidal rating AMBEL (AMBEL (Ragweed, Common) [1]; rate 0.0313 kg/ha): 0.0 | Preemergence herbicidal rating AMBEL (AMBEL (Ragweed, Common) [1]; rate 0.0625 kg/ha): 4.0 | Preemergence herbicidal rating AMBEL (AMBEL (Ragweed, Common) [1]; rate 0.1250 kg/ha): 4.0 | Preemergence herbicidal rating AMBEL (AMBEL (Ragweed, Common) [1]; rate 0.2500 kg/ha): 7.0 | Preemergence herbicidal rating SETVI (SETVI (Foxtail, Green); rate 0.0313 kg/ha): 3.0 | Preemergence herbicidal rating SETVI (SETVI (Foxtail, Green); rate 0.0625 kg/ha): 9.0 | Preemergence herbicidal rating SETVI (SETVI (Foxtail, Green); rate 0.1250 kg/ha): 9.0 | Preemergence herbicidal rating SETVI (SETVI (Foxtail, Green); rate 0.2500 kg/ha): 9.0 | Postemergence herbicidal rating AMBEL (AMBEL (Ragweed, Common) [2]; Rate 0.0158 kg/ha): 9.0 | Postemergence herbicidal rating AMBEL (AMBEL (Ragweed, Common) [2]; Rate 0.0315 kg/ha): 9.0 | Postemergence herbicidal rating AMBEL (AMBEL (Ragweed, Common) [2]; Rate 0.0630 kg/ha): 9.0 | Herbicidal rating ECHORC ([3]; rate 0.0313 kg/ha, 3-4 weeks after treatment): 3.0 | Herbicidal rating ECHORC ([3]; rate 0.0625 kg/ha, 3-4 weeks after treatment): 4.0 | Herbicidal rating ECHORC ([3]; rate 0.1250 kg/ha, 3-4 weeks after treatment): 4.0 | Herbicidal rating ECHORC ([3]; rate 0.2500 kg/ha, 3-4 weeks after treatment): 9.0 | Herbicidal rating SAGPY ([4]; 0.0313 kg/ha): 0.0 | Herbicidal rating SAGPY ([4]; 0.0625 kg/ha): 0.0 | Herbicidal rating SAGPY ([4]; 0.1250 kg/ha): 0.0 | Herbicidal rating SAGPY ([4]; 0.2500 kg/ha): 0.0 | Preemergence herbicidal rating GLXMAW ([5]; rate 0.0313 kg/ha): 0.0 | Preemergence herbicidal rating GLXMAW ([5]; rate 0.0625 kg/ha): 0.0 | Preemergence herbicidal rating GLXMAW ([5]; rate 0.1250 kg/ha): 0.0 | Preemergence herbicidal rating GLXMAW ([5]; rate 0.2500 kg/ha): 0.0 | Preemergence herbicidal rating ABUTH (ABUTH (Velvetleaf); rate 0.0313 kg/ha): 9.0 | Preemergence herbicidal rating ABUTH (ABUTH (Velvetleaf); rate 0.0625 kg/ha): 9.0 | Preemergence herbicidal rating ABUTH (ABUTH (Velvetleaf); rate 0.1250 kg/ha): 9.0 | Preemergence herbicidal rating ABUTH (ABUTH (Velvetleaf); rate 0.2500 kg/ha): 9.0 | Postemergence herbicidal rating GLXMAW ([6]; Rate 0.0158 kg/ha): 7.0 | Postemergence herbicidal rating GLXMAW ([6]; Rate 0.0315 kg/ha): 7.0 | Postemergence herbicidal rating GLXMAW ([6]; Rate 0.0630 kg/ha): 7.0 | Postemergence herbicidal rating ZEAMX (ZEAMX (Corn, Field); Rate 0.0158 kg/ha): 5.5 | Postemergence herbicidal rating ZEAMX (ZEAMX (Corn, Field); Rate 0.0315 kg/ha): 6.5 | Postemergence herbicidal rating ZEAMX (ZEAMX (Corn, Field); Rate 0.0630 kg/ha): 7.0 | Postemergence herbicidal rating IPOHE ([7]; Rate 0.0158 kg/ha): 9.0 | Postemergence herbicidal rating IPOHE ([7]; Rate 0.0315 kg/ha): 9.0 | Postemergence herbicidal rating IPOHE ([7]; Rate 0.0630 kg/ha): 9.0 | Herbicidal rating CYPSE (CYPSE (Flatsedge); 0.0313 kg/ha): 0.0 | Herbicidal rating CYPSE (CYPSE (Flatsedge); 0.0625 kg/ha): 0.0 | Herbicidal rating CYPSE (CYPSE (Flatsedge); 0.1250 kg/ha): 0.0 | Herbicidal rating CYPSE (CYPSE (Flatsedge); 0.2500 kg/ha): 0.0 | Preemergence herbicidal rating GALAP (GALAP (Galium); rate 0.0313 kg/ha): 0.0 | Preemergence herbicidal rating GALAP (GALAP (Galium); rate 0.0625 kg/ha): 7.0 | Preemergence herbicidal rating GALAP (GALAP (Galium); rate 0.1250 kg/ha): 7.0 | Preemergence herbicidal rating GALAP (GALAP (Galium); rate 0.2500 kg/ha): 9.0 | Preemergence herbicidal rating ECHCG (ECHCG (Barnyardgrass); rate 0.0313 kg/ha): 0.0 | Preemergence herbicidal rating ECHCG (ECHCG (Barnyardgrass); rate 0.0625 kg/ha): 0.0 | Preemergence herbicidal rating ECHCG (ECHCG (Barnyardgrass); rate 0.1250 kg/ha): 2.0 | Preemergence herbicidal rating ECHCG (ECHCG (Barnyardgrass); rate 0.2500 kg/ha): 5.0

— US20020137929A1, “1 - (3-heterocyclylphenyl) isothiourea, -isourea, -guanidine and -amidine herbicidal agents” (Intellectual Property Department, BASF Aktiengesellschaft, priority 1998, published 2002)
